Experimental findings from article PMC7865522, “Analyzing Kinase Similarity in Small Molecule and Protein Structural Space to Explore the Limits of Multi-Target Screening” (Molecules, 2021) are described below.

The target in test [1] is T1, BRAF (Homo sapiens, UniProt P15056).
T1 construct: purchased DiscoverX (KINOMEscan service); host or cells: E. coli BL21-derived host (T7 phage) or HEK-293
Kind of test: DiscoverX KINOMEscan competition binding assay. The following applies: compound 10 µM; lower values = higher affinity; below 35% = significant binding. The method, then:
(§1) Ligand binding experiments for the molecules selected from Profiles 1 and 2 towards nine kinases (EGFR, ErbB2, LCK, CDK2, BRAF, MET, p38α, PI3K and VEGFR2) and for molecules selected from Profiles 3 and 4 towards four kinases (EGFR, ErbB2, BRAF and VEGFR2) were carried out by DiscoverX using the supplied protocol as described in the Supplementary Materials. Briefly, ligand affinity was measured by competition with a resin-bound standard ligand and washed-off kinase concentration was determined via qPCR.
(§2) Summarizing, binding of a compound to a kinase was tested in comparison to a control compound (see Table S2). […]
(§3) 1.1. DiscoverX kinase assay
(§4) For most assays, kinase-tagged T7 phage strains were grown in parallel in 24-well blocks in an E.coli host derived from the BL21 strain. E.coli were grown to log-phase and infected with T7 phage from a frozen stock (multiplicity of infection = 0.4) and incubated with shaking at 32°C until lysis (90-150 minutes). The lysates were centrifuged (6,000 x g) and ﬁltered (0.2µm) to remove cell debris.
(§5) The remaining kinases were produced in HEK-293 cells and subsequently tagged with DNA for qPCR detection. Streptavidin-coated magnetic beads were treated with biotinylated small molecule ligands for 30 minutes at room temperature to generate afﬁnity resins for the kinases. The liganded beads were blocked with excess biotin and washed with blocking buffer (SeaBlock [Pierce], 1% BSA, 0.05% Tween 20, 1 mM DTT) to remove unbound ligands and to reduce non-speciﬁc phage binding. Binding reactions were assembled by combining kinases, liganded afﬁnity beads, and test compounds in 1x binding buffer (20% SeaBlock, 0.17x PBS, 0.05% Tween 20, 6 mM DTT). Test compounds were prepared as 40x stocks in 100% DMSO and directly diluted into the assay. All reactions were performed in polypropylene 384-well plates in a ﬁnal volume of 0.02 ml. The assay plates were incubated at room temperature with shaking for 1 hour and the afﬁnity beads were washed with wash buffer (1x PBS, 0.05% Tween 20). The beads were then re-suspended in elution buffer (1x PBS, 0.05% Tween 20, 0.5 µM non-biotinylated afﬁnity ligand) and incubated at room temperature with shaking for 30 minutes. The kinase concentration in the eluates was measured by qPCR. […]
(§6) Table S2. Experimental % control values from the DiscoverX kinase assay. Compounds were tested against the nine kinases EGFR, ErbB2, LCK, CDK2, BRAF, MET, p38α, PI3K and VEGFR2, unless otherwise stated. Binding of kinase and compound were tested at a compound concentration of 10 µM and in comparison to a control compound. Lower values indicate a higher afﬁnity of the compound to the protein and values below 35% indicate signiﬁcant binding according to information of the CRO. […]
(§7) a Compounds were only tested against four kinases (EGFR, ErbB2, BRAF and VEGFR2). b Compound was selected independently from two docking proﬁles and tested separately during

A further test deals with T2, CDK2 (Homo sapiens, UniProt P24941).
T2 construct: purchased DiscoverX (KINOMEscan service); host or cells: E. coli BL21-derived host (T7 phage) or HEK-293
In words: DiscoverX KINOMEscan competition binding assay. To be noted: compound 10 µM; lower values = higher affinity; below 35% = significant binding. The method, then:
as §1, §2, §3, §4, §5, §6, §7

Test [2] addresses T3, EGFR (Homo sapiens, UniProt P00533).
T3 construct: purchased DiscoverX (KINOMEscan service); host or cells: E. coli BL21-derived host (T7 phage) or HEK-293
In words: DiscoverX KINOMEscan competition binding assay. The following applies: compound 10 µM; lower values = higher affinity; below 35% = significant binding. The method, then:
as §1, §2, §3, §4, §5, §6, §7

For test [3], the target named is T4, ErbB2 (Homo sapiens, UniProt P04626).
T4 construct: purchased DiscoverX (KINOMEscan service); host or cells: E. coli BL21-derived host (T7 phage) or HEK-293
T4 sequence (P04626 23-1255): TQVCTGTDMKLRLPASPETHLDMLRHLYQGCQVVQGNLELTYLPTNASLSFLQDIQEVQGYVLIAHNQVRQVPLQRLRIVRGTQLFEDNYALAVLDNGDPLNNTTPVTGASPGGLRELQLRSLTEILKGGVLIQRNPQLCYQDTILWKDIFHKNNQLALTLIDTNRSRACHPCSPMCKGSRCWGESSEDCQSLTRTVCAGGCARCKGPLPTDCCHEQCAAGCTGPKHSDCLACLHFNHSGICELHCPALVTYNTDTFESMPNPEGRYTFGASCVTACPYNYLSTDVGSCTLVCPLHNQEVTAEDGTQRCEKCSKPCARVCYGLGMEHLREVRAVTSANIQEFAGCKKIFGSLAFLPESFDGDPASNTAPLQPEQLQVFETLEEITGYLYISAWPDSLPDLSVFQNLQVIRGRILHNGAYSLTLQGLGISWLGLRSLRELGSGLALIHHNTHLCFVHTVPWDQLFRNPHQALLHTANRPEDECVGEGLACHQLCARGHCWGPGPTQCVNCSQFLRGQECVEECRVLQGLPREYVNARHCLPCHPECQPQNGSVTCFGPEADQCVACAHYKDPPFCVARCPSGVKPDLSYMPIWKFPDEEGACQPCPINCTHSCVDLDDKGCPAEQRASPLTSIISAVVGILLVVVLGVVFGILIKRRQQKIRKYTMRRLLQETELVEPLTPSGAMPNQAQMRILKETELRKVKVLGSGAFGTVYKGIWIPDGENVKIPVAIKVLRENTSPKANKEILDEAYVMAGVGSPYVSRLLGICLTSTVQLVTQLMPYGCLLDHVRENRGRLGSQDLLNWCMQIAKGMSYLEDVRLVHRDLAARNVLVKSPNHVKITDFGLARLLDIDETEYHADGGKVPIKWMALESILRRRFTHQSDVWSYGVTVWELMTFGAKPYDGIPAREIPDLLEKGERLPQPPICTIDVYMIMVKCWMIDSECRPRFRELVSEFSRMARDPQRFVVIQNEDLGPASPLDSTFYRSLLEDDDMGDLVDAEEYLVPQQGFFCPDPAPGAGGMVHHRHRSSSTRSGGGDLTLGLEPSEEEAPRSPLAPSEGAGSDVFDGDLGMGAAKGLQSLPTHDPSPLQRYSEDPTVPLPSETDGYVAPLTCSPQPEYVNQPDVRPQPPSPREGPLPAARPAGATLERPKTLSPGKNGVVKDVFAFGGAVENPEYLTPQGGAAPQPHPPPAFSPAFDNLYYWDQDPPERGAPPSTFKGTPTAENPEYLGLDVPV
Kind of test: DiscoverX KINOMEscan competition binding assay. To be noted: compound 10 µM; lower values = higher affinity; below 35% = significant binding. The method, then: as §1, §2, §3, §4, §5, §6, §7

The next test concerns the target T5, LCK (Homo sapiens, UniProt P06239).
T5 construct: purchased DiscoverX (KINOMEscan service); host or cells: E. coli BL21-derived host (T7 phage) or HEK-293
Kind of test: DiscoverX KINOMEscan competition binding assay. To be noted: compound 10 µM; lower values = higher affinity; below 35% = significant binding. The method, then:
as §1, §2, §3, §4, §5, §6, §7

The target of a further test is T6, MET (Homo sapiens, UniProt P08581).
T6 construct: purchased DiscoverX (KINOMEscan service); host or cells: E. coli BL21-derived host (T7 phage) or HEK-293
T6 sequence (P08581 25-1390): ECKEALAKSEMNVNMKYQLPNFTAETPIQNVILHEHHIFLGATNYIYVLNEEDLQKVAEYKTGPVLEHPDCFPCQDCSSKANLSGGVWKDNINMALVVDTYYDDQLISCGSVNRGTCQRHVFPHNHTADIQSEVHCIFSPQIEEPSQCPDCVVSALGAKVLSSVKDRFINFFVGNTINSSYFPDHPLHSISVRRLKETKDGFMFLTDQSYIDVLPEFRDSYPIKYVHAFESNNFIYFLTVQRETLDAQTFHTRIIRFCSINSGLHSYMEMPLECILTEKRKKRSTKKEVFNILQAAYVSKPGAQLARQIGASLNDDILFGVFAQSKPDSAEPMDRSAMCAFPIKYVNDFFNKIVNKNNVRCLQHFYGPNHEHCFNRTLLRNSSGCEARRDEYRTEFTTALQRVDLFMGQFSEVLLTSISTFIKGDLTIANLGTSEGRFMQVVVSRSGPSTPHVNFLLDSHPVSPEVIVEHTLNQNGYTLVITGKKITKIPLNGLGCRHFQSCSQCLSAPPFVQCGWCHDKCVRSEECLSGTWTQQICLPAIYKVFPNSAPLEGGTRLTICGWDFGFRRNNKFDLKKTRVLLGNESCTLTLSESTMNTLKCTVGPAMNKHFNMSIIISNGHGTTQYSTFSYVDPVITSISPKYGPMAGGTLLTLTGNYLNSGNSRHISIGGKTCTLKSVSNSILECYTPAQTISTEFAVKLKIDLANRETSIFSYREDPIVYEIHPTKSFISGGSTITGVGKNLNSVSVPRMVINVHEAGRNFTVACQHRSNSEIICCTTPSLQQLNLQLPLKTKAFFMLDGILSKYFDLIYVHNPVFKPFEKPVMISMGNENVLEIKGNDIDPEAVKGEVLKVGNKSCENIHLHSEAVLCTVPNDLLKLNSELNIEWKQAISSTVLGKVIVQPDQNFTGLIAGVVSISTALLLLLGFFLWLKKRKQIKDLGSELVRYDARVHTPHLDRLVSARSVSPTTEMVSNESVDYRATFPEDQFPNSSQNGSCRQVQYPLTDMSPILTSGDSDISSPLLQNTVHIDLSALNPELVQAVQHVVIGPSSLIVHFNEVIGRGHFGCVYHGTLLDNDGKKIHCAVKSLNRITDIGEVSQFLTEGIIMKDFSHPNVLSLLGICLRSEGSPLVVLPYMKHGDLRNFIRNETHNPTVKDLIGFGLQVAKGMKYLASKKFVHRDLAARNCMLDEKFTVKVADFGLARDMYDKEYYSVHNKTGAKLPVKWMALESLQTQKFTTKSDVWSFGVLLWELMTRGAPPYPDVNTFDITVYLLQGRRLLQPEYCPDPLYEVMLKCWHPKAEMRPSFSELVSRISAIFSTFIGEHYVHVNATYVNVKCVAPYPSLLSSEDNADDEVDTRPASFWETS
In words: DiscoverX KINOMEscan competition binding assay. To be noted: compound 10 µM; lower values = higher affinity; below 35% = significant binding. The method, then:
as §1, §2, §3, §4, §5, §6, §7

A further test deals with T7, VEGFR2 (Homo sapiens, UniProt P35968).
T7 construct: purchased DiscoverX (KINOMEscan service); host or cells: E. coli BL21-derived host (T7 phage) or HEK-293
In words: DiscoverX KINOMEscan competition binding assay. To be noted: compound 10 µM; lower values = higher affinity; below 35% = significant binding. The method, then: as §1, §2, §3, §4, §5, §6, §7

A further test has as its target T8, p38α (Homo sapiens, UniProt Q16539).
T8 construct: purchased DiscoverX (KINOMEscan service); host or cells: E. coli BL21-derived host (T7 phage) or HEK-293
Kind of test: DiscoverX KINOMEscan competition binding assay. The following applies: compound 10 µM; lower values = higher affinity; below 35% = significant binding. The method, then: as §1, §2, §3, §4, §5, §6, §7

Test [4] deals with T1, BRAF. In words: Eurofins in vitro kinase inhibition assay. The class given is biochemical. To be noted: compound 20 µM; mean (SD); above 50% significant, 25-50% weak. The method, then:
(§8) Kinase inhibition assays for EGFR, ErbB2, PI3K and BRAF were carried out by Eurofins Cerep following the protocols of Weber et al. (EGFR), Quian et al. (ErbB2), Sinnamon et al. (PI3K) and Kupcho et al. (BRAF). Briefly, except for PI3K, compounds were incubated with the respective kinase, ATP, and a substrate analog, and the effect of each compound on phosphorylation was measured. In the case of PI3K, the displacement of biotinylated PIP3 from a PIP3-binding complex by unlabelled PIP3 (produced from PIP2 by PI3K) was measured by Homogeneous Time Resolved Fluorescence (HTRF).
(§9) Finally, inhibition of the respective kinases is calculated as the percentage inhibition of control activity.
(§10) Table S3. Experimental results from the Euroﬁns assay. Inhibition of four kinases (EGFR, PI3K, ErbB2, BRAF) was measured at compound concentrations of 20 µM. Inhibition was calculated as % inhibition of control activity. According to CRO, values above 50% inhibition represent signiﬁcant inhibition, values above 25% weak inhibition effect and values below 25% as well as negative values are usually not signiﬁcant. Results are reported in mean (SD) format. […]
(§11) a Compound interfered with assay readout.

Test [5] addresses T3, EGFR. In words: Eurofins in vitro kinase inhibition assay. The class given is biochemical. The following applies: compound 20 µM; mean (SD); above 50% significant, 25-50% weak. The method, then: as §8, §9, §10, §11
Test [6] deals with T4, ErbB2. Kind of test: Eurofins in vitro kinase inhibition assay. To be noted: compound 20 µM; mean (SD); above 50% significant, 25-50% weak. The class given is biochemical. The method, then: as §8, §9, §10, §11
The target of test [7] is T9, PI3K (Homo sapiens, UniProt P42336). In words: Eurofins in vitro kinase inhibition assay (HTRF, PIP3 displacement). The class given is biochemical. Details: purchased Eurofins Cerep (contract assay). To be noted: compound 20 µM; mean (SD); above 50% significant, 25-50% weak. The method, then:
as §8, §9, §10, §11
On the technique in general: TR-FRET usually uses a lanthanide donor and a delayed reading to cut background.

Test [8] addresses T9, PI3K. In words: DiscoverX KINOMEscan competition binding assay. To be noted: compound 10 µM; lower values = higher affinity; below 35% = significant binding. Details: purchased DiscoverX (KINOMEscan service); host or cells: E. coli BL21-derived host (T7 phage) or HEK-293. The method, then:
as §1, §2, §3, §4, §5, §6, §7

Structures are written as SMILES.

T8 sequence (Q16539 whole entry): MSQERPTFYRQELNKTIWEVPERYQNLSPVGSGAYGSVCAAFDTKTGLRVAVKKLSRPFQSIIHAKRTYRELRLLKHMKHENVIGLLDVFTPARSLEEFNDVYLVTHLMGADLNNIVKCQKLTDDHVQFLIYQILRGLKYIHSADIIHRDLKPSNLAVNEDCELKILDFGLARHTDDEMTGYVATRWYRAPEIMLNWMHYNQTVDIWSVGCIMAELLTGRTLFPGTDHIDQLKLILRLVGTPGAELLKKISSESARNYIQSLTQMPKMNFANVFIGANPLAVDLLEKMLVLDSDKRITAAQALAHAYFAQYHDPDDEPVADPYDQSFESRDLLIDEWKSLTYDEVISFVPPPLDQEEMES
T5 sequence (P06239 whole entry): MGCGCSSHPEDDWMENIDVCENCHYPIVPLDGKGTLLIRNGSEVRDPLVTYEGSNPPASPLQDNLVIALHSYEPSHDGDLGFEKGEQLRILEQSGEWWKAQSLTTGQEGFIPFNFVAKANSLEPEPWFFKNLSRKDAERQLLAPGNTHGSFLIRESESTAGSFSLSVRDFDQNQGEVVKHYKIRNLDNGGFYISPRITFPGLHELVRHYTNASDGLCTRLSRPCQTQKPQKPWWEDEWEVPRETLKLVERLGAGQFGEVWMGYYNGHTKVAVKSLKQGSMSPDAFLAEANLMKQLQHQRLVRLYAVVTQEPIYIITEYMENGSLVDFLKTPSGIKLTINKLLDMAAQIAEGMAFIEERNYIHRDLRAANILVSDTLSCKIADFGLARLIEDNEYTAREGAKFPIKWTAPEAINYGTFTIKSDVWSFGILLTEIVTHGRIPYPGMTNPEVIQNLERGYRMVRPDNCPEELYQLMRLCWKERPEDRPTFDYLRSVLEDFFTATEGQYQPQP
T1 sequence (P15056 whole entry): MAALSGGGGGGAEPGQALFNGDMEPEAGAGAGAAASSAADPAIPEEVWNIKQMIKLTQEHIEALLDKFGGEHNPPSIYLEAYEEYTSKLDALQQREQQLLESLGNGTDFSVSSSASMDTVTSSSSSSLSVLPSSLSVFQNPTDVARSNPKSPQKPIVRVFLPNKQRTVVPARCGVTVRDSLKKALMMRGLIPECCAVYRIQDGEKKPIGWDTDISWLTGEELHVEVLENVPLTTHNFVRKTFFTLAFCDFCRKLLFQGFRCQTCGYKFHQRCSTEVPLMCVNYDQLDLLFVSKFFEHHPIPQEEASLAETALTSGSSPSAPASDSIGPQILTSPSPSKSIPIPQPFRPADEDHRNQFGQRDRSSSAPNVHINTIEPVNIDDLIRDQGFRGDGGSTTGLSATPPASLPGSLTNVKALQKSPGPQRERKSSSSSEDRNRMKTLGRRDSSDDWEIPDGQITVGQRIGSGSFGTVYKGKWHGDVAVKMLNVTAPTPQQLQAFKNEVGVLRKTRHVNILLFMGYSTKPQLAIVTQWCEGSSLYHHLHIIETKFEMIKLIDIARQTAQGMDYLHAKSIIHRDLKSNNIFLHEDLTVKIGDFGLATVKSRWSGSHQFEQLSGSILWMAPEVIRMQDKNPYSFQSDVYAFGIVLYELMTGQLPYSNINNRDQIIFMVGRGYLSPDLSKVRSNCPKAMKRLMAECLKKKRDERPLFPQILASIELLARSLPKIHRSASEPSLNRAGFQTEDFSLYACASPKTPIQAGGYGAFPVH

As for `CCOCCCNC(=O)c1nc2c3c4c(sc3ncn2n1)CC[C@@H](C)C4` [DS82066], the “% control, BRAF (DiscoverX)” value at BRAF [1] was 83 % control. For the same compound, at CDK2, the “% control, CDK2 (DiscoverX)” value worked out at 100 % control. Further, the “% control, EGFR (DiscoverX)” value on EGFR [2] was 92 % control. In addition, the “% control, ErbB2 (DiscoverX)” value on ErbB2 [3] stood at 90 % control. For the same compound, the “% control, LCK (DiscoverX)” value on LCK came out at 100 % control. Moreover, the “% control, MET (DiscoverX)” value on MET amounted to 100 % control. In addition, the “% control, VEGFR2 (DiscoverX)” value on VEGFR2 was found to be 100 % control. In addition, the “% control, p38α (DiscoverX)” value on p38α amounted to 93 % control. Further, on BRAF [4], the “% inhibition of control activity, BRAF (Eurofins)” value (“% inhibition … BRAF (Eurofins)” below) is listed as -18.5 (1.8) % inhibition. On EGFR [5], the “% inhibition of control activity, EGFR (Eurofins)” value (“% inhibition … EGFR (Eurofins)” below) is listed as 12.6 (1.9) % inhibition. In addition, the “% inhibition of control activity, ErbB2 (Eurofins)” value (“% inhibition … ErbB2 (Eurofins)” below) at ErbB2 [6] is given as -1.4 (0.8) % inhibition. Moreover, the “% inhibition of control activity, PI3K (Eurofins)” value (“% inhibition … PI3K (Eurofins)” for short) on PI3K [7] is 3.6 (2.3) % inhibition. The “% control, PI3K (DiscoverX)” value on PI3K [8] amounted to 89 % control.
On to `O=C(NCC1CC1)Nc1ccc(N2CCOC2=O)cc1` [DS75739], for which the “% control, BRAF (DiscoverX)” value on BRAF [1] was found to be 100 % control. Also, the “% control, CDK2 (DiscoverX)” value at CDK2 was determined as 100 % control. Moreover, the “% control, EGFR (DiscoverX)” value on EGFR [2] stood at 100 % control. In addition, at ErbB2 [3], the “% control, ErbB2 (DiscoverX)” value was 94 % control. Further, the “% control, LCK (DiscoverX)” value at LCK is recorded as 100 % control. Besides, on MET, the “% control, MET (DiscoverX)” value is 85 % control. Moreover, the “% control, VEGFR2 (DiscoverX)” value at VEGFR2 was 100 % control. Besides, at p38α, the “% control, p38α (DiscoverX)” value is listed as 87 % control. On BRAF [4], the “% inhibition … BRAF (Eurofins)” value was -11.1 (4.9) % inhibition. At EGFR [5], the “% inhibition … EGFR (Eurofins)” value is on record as 4.3 (6.9) % inhibition. Moreover, the “% inhibition … ErbB2 (Eurofins)” value at ErbB2 [6] is -0.6 (1.1) % inhibition. For the same compound, the “% inhibition … PI3K (Eurofins)” value on PI3K [7] is 1.7 (0.8) % inhibition. The “% control, PI3K (DiscoverX)” value on PI3K [8] came out at 100 % control.
With `CC(C)n1ccc(=O)nc1SC1CCN(c2ccccc2F)C1=O` (stereo not drawn) [DS99367], the “% control, BRAF (DiscoverX)” value on BRAF [1] was determined as 100 % control. Also, the “% control, CDK2 (DiscoverX)” value at CDK2 is on record as 100 % control. Also, the “% control, EGFR (DiscoverX)” value on EGFR [2] came to 93 % control. Besides, the “% control, ErbB2 (DiscoverX)” value at ErbB2 [3] worked out at 100 % control. The “% control, LCK (DiscoverX)” value at LCK worked out at 100 % control. Moreover, the “% control, MET (DiscoverX)” value on MET is 87 % control. For the same compound, the “% control, VEGFR2 (DiscoverX)” value at VEGFR2 is given as 100 % control. For the same compound, at p38α, the “% control, p38α (DiscoverX)” value stood at 91 % control. In addition, at BRAF [4], the “% inhibition … BRAF (Eurofins)” value was -19.6 (11.8) % inhibition. Besides, the “% inhibition … EGFR (Eurofins)” value at EGFR [5] is given as 17.3 (0.1) % inhibition. Also, the “% inhibition … ErbB2 (Eurofins)” value at ErbB2 [6] is -3.3 (0.5) % inhibition. Also, at PI3K [7], the “% inhibition … PI3K (Eurofins)” value was 1.4 (0.1) % inhibition. Besides, the “% control, PI3K (DiscoverX)” value at PI3K [8] is listed as 100 % control.
